Where two headings read alike, the source gives them in different places.
Assays:
[1] = tested on: rat endotoxin-induced uveitis (EIU) model; assay: Rat endotoxin-induced uveitis (EIU) model: cell infiltrate and protein leakage in the aqueous humor; assay type: in vivo; settings: for Protein concentration in the aqueous humor: FIG. 11B; for Cell infiltrate in the aqueous humor: FIG. 9C
Source text: FIGS. 9A-D show the results of experiments where cicaprost was applied topically to inhibit inflammation in a rat endotoxin-induced uveitis (EIU) model. Here, the rats were challenged with LPS, and the resulting inflammatory reaction was quantified by measuring leukocyte cell infiltration in the aqueous humor and by measuring the amount of protein leakage into the aqueous humor. In the Figures, “LPS” corresponds to the control where no other topical treatment was applied. “Vehicle” corresponds to an eye drop ophthalmic vehicle solution containing no drug, and which otherwise comprises 0.1% polysorbate 80 in an aqueous medium. “Pred-Forte” corresponds to an ophthalmic solution of 1% prednisolone acetate. “Acular” corresponds to an ophthalmic solution of 0.4% ketorolac. The concentrations of cicaprost used in the ophthalmic vehicle solution were 0.001%, 0.01%, and 0.1%.
FIGS. 11A-B show the results of experiments measuring cell infiltrate and protein in the aqueous humor in a rat EIU model challenged with LPS, where the rats were challenged in a similar manner as described previously. Cicaprost, as well as the cicaprost prodrugs described above in Formulas II-V, were separately topically dosed as a 0.1% ophthalmic solution.

[2] = tested on: cytokine secretion in human monocyte derived dendritic cells; assay: Cytokine secretion in LPS-stimulated human monocyte derived dendritic cells; assay type: cell-based
Method: FIGS. 8A-F illustrate the effect of different IP receptor agonists and antagonists on cytokine secretion in human monocyte derived dendritic cells stimulated with LPS. In these experiments, the cells were exposed to cicaprost, cicaprost in conjunction with DMSO, and cicaprost with an IP receptor antagonist (Formula VI). Cytokines measured for were TNF-α, IL-6, MCP-1, MIP-1β, IL-8, and IL-12p70, corresponding to FIGS. 8A through 8F, respectively. The concentration ranges of cicaprost were 0 nM, 0.1 nM, 1 nM, 10 nM, 100 nM, and 1000 nM. The concentration of Formula VI IP receptor antagonist used was 10 uM throughout. The concentration of the various cytokines tested for were measured in ng/ml. The concentration of the DMSO used in conjunction with cicaprost was at 0.1%.

[3] = tested on: IL-8 secretion in human macrophages; assay: Effect on IL-8 secretion in stimulated human macrophages in vitro; assay type: cell-based; settings: Macrophage, LPS stimulation, FIG. 1A
Method: (§1) The human macrophages were simulated either with lipopolysaccharide (LPS), illustrated in FIG. 1A, or with TNF-α, illustrated in FIG. 1B. The labels on the x-axis correspond respectively to tests measuring IL-8 concentration with no stimulus, a control of only stimulant vehicle (i.e., LPS or TNF-α), and stimulant vehicle in conjunction with cicaprost concentrations of 0.1 nM, 1 nM, 10 nM, 100 nM, and 1000 nM. The y-axis tracks the percentage change of concentration of IL-8 versus the control stimulant vehicle, which is set at 100%.

[4] = tested on: MCP-1 secretion in human macrophages; assay: Effect on MCP-1 secretion in stimulated human macrophages in vitro; assay type: cell-based; settings: Macrophage
Method: as §1, with “FIGS. 1A-B illustrate the effect of cicaprost on IL-8 secretion on in vitro human macrophages. The human” for “The human”
FIGS. 2A-B illustrate the effect of cicaprost on MCP-1 secretion on in vitro human macrophages. The human macrophages were simulated either with LPS, illustrated in FIG. 2A, or with TNF-α, illustrated in FIG. 2B. The labeling of the graphs is otherwise the same as described above.

[5] = tested on: MIP-1α secretion in human macrophages; assay: Effect on MIP-1α secretion in stimulated human macrophages in vitro; assay type: cell-based; settings: Macrophage
Method: as §1, with “FIGS. 1A-B illustrate the effect of cicaprost on IL-8 secretion on in vitro human macrophages. The human” for “The human”
FIGS. 3A-B illustrate the effect of cicaprost on MIP-1α secretion on in vitro human macrophages. The human macrophages were simulated either with LPS, illustrated in FIG. 3A, or with TNF-α, illustrated in FIG. 3B. The labeling of the graphs is otherwise the same as described above.

[6] = tested on: MIP-1β secretion in human macrophages; assay: Effect on MIP-1β secretion in stimulated human macrophages in vitro; assay type: cell-based; settings: Macrophage
Method: as §1, with “FIGS. 1A-B illustrate the effect of cicaprost on IL-8 secretion on in vitro human macrophages. The human” for “The human”
FIGS. 4A-B illustrate the effect of cicaprost on MIP-1β secretion on in vitro human macrophages. The human macrophages were simulated either with LPS, illustrated in FIG. 4A, or with TNF-α, illustrated in FIG. 4B. The labeling of the graphs is otherwise the same as described above.

[7] = tested on: RANTES secretion in human macrophages; assay: Effect on RANTES secretion in stimulated human macrophages in vitro; assay type: cell-based; settings: Macrophage
Method: as §1, with “FIGS. 1A-B illustrate the effect of cicaprost on IL-8 secretion on in vitro human macrophages. The human” for “The human”
FIGS. 5A-B illustrate the effect of cicaprost on RANTES secretion on in vitro human macrophages. The human macrophages were simulated either with LPS, illustrated in FIG. 5A, or with TNF-α, illustrated in FIG. 5B. The labeling of the graphs is otherwise the same as described above.

[8] = tested on: TNF-α secretion in human macrophages; assay: Effect on TNF-α secretion in LPS-stimulated human macrophages in vitro; assay type: cell-based; settings: Macrophage, LPS stimulation, FIG. 6
Method: as §1, with “FIGS. 1A-B illustrate the effect of cicaprost on IL-8 secretion on in vitro human macrophages. The human” for “The human”
FIG. 6 illustrates the effect of cicaprost on TNF-α secretion on in vitro human macrophages. The human macrophages were simulated with LPS. The labeling of the graphs is otherwise the same as described above.

[9] = tested on: VEGF secretion in human macrophages; assay: Effect on VEGF secretion in TNF-α-stimulated human macrophages in vitro; assay type: cell-based; settings: Macrophage, TNF-α stimulation, FIG. 7
Method: as §1, with “FIGS. 1A-B illustrate the effect of cicaprost on IL-8 secretion on in vitro human macrophages. The human” for “The human”
FIG. 7 illustrates the effect of cicaprost on VEGF secretion on in vitro human macrophages. The human macrophages were simulated with TNF-α. The labeling of the graphs is otherwise the same as described above.

[10] = tested on: rat endotoxin-induced uveitis (EIU) model; assay: Rat EIU model: cytokine concentration in the aqueous humor; assay type: in vivo; settings: LPS challenge, topical cicaprost 0.001%, 0.01%, 0.1%, vs vehicle
Method: FIGS. 10A-C depict the results of experiments measuring cytokine expression in a rat EIU model, where the rats were challenged with LPS. Cytokine concentration (here, MCP-1, RANTES, and IL-6) was measured subsequent to the LPS challenge, after topical application of cicaprost at concentrations from 0.001%, 0.01%, and 0.1%, together with a control eye drop vehicle (abbreviated “Vehicle” in the figures) where no cicaprost was present.

[11] = tested on: corneal wound (anterior keratectomy), donated human eyes; assay: Corneal wound closure in an anterior segment model of donated human eyes; settings: 0.1% cicaprost, two drops at 0 and 9 hours, wound area at 18 hours, vs vehicle-dosed eye, 3 pairs of donor eyes
Method: The effect of cicaprost on corneal wound healing was evaluated in an anterior segment model using 3 pairs of donated human eyes. Wounding (anterior keratectomy, AK) was induced by scoring the cornea in 8 mm diameter, and the epithelium was removed using a gill knife. The anterior segment of the eye was dissected and cultured in complete medium on a rotating platform for several days to maintain tissue differentiation. Two drops (approximately 50 μl per drop) of 0.1% cicaprost were dosed at 0 and 9 hours on one eye (“Cp”), while the other eye (“CN”) was treated with vehicle (0.1% polysorbate 80 in saline). The initial wound and the progression of wound closure was visualized with 0.015% fluorescein, and the wound area recorded at 0 and 18 hours, as shown in FIG. 12.

[12] = LPS challenge, topical 0.1% ophthalmic solution, vs control vehicle

Q: For CCC#CC[C@H](C)[C@@H](C#C[C@@H]1[C@H]2C/C(=C/COCC(=O)O)C[C@H]2C[C@H]1O)OC(C)=O [Formula IV], which “Protein concentration in the aqueous humor” value (shortened to “Protein concentration”) [1, 12] is on record?
A: some reduction in protein concentration

Q: For CCC#CC[C@H](C)[C@H](O)C#C[C@@H]1[C@H]2C/C(=C/COCC(=O)O)C[C@H]2C[C@H]1OC(C)=O [Formula II], which “Protein concentration” value [1, 12] is on record?
A: some reduction in protein concentration

Q: With CCC#CC[C@H](C)[C@H](O)C#C[C@@H]1[C@H]2C/C(=C/COCC(=O)O)C[C@H]2C[C@H]1OC(=O)CC [Formula III] as the compound, how does the “Protein concentration” value [1, 12] read?
A: approximately comparable to cicaprost in effect

Q: With C=C/C(=C\C=C\Cc1ccc(NC2=NCCN2)cc1)OCC [Formula VI, reference compound] as the compound, how does the “Cytokine expression on addition of the IP receptor antagonist to cicaprost” value ([2]; Formula VI 10 uM with cicaprost 0-1000 nM) read?
A: caused cytokine expression to remain elevated in comparison

Q: CCC#CC[C@H](C)[C@H](O)C#C[C@@H]1[C@H]2C/C(=C/COCC(=O)O)C[C@H]2C[C@H]1O [cicaprost] was tested. Which IC50 [3] did it give?
A: 0.8 nM

Q: What about the IC50 ([4]; LPS stimulation, FIG. 2A, read-out: IC50 on MCP-1 secretion stimulated by LPS) of the same compound?
A: 0.7 nM

Q: What about the IC50 ([4]; TNF-α stimulation, FIG. 2B, read-out: IC50 on MCP-1 secretion) of the same compound?
A: 0.5 nM

Q: And the IC50 ([5]; LPS stimulation, FIG. 3A, read-out: IC50 on MIP-1α secretion stimulated by LPS)?
A: 0.3 nM

Q: And the IC50 ([5]; TNF-α stimulation, FIG. 3B, read-out: IC50 on MIP-1α secretion)?
A: 0.6 nM

Q: What about the IC50 ([6]; LPS stimulation, FIG. 4A, read-out: IC50 on MIP-1β secretion stimulated by LPS) of the same compound?
A: 0.5 nM

Q: And the IC50 ([6]; TNF-α stimulation, FIG. 4B, read-out: IC50 on MIP-1β secretion)?
A: 0.7 nM

Q: What about the IC50 ([7]; LPS stimulation, FIG. 5A, read-out: IC50 on RANTES secretion stimulated by LPS) of the same compound?
A: 0.8 nM

Q: And the IC50 ([7]; TNF-α stimulation, FIG. 5B, read-out: IC50 on RANTES secretion)?
A: 1.6 nM

Q: What about the IC50 [8] of the same compound?
A: 0.14 nM

Q: And the EC50 [9]?
A: 2.3 nM

Q: And the “Cytokine expression (TNF-α, IL-6, MCP-1, MIP-1β, IL-8, IL-12p70)” value ([2]; cicaprost 0.1-1000 nM with 0.1% DMSO)?
A: increasing inhibition of cytokine expression

Q: And the “Cytokine expression (TNF-α, IL-6, MCP-1, MIP-1β, IL-8, IL-12p70)” value ([2]; cicaprost 0.1-1000 nM, vs 0 nM control)?
A: increasing inhibition of cytokine expression

Q: What about the “Cell infiltration in the aqueous humor” value ([1]; LPS challenge, topical 0.1% ophthalmic solution, vs control vehicle, FIG. 11A) of the same compound?
A: caused a reduction in cell infiltration

Q: What about the “Protein concentration” value [1, 12] of the same compound?
A: reduced protein concentration in the aqueous humor

Q: And the “Cell infiltrate in the aqueous humor” value ([1]; topical 0.1% cicaprost solution)?
A: reduced cell infiltrate to near-zero levels

Q: What about the “Cell infiltrate in the aqueous humor” value ([1]; topical cicaprost 0.001%, 0.01%, 0.1%) of the same compound?
A: increasing effect on lowering cell infiltrate

Q: And the “Protein in the aqueous humor” value ([1]; topical cicaprost 0.001-0.1%, especially 0.1%, FIG. 9D)?
A: also reduced

Q: What about the IL-6 concentration [10] of the same compound?
A: reduced the concentration of the monitored cytokines

Q: What about the MCP-1 concentration [10] of the same compound?
A: reduced the concentration of the monitored cytokines

Q: And the RANTES concentration [10]?
A: reduced the concentration of the monitored cytokines

Q: What about the “Percentage of wound closure” value [11] of the same compound?
A: showed an improvement in the percentage of wound closure

Q: CCC#CC[C@H](C)[C@@H](C#C[C@@H]1[C@H]2C/C(=C/COCC(=O)O)C[C@H]2C[C@H]1O)OC(=O)CC [Formula V] was tested. Which “Protein concentration” value [1, 12] did it give?
A: some reduction in protein concentration

Reference: patent US9345678B2, “Prostanoid receptor agonist compounds and methods of use for same” (ALLERGAN, INC., priority 2013, dated 2016)
